Source: patent US20230310432A1 (JULIUS-MAXIMILIANS-UNIVERSITÄT WÜRZBURG, priority 2017, published 2023)

What was measured:
[1] = system: CD8+ T cells expressing a CD19 CAR with CD28 costimulatory domain; assay: Bioluminescence-based cytotoxicity assay, K562/CD19 target cells; format: cell-based, human
[2] = system: CD8+ T cells expressing a CD19 CAR with 4-1BB costimulation; assay: as above; format: cell-based, human
Experimental: Cytotoxicity: Target cells were stably transduced with ffluc_GFP and incubated in triplicate wells at 1×10^4 cells/well with effector T cells at an effector to target (E:T) ratio of 5:1. D-luciferin substrate (Biosynth, Staad, Switzerland) was added to the co-culture to a final concentration of 0.15 mg/ml and the decrease in luminescence signal in wells that contained target cells and T-cells was measured using a luminometer (Tecan, Mannedorf, Switzerland). Specific lysis was calculated using the standard formula.
The inventors prepared CD8+ CAR-T cell lines from n=3 healthy donors. In each of the T-cell lines, the inventors enriched CAR-expressing T cells to >90% purity using the EGFRt-transduction marker. The inventors analyzed cytolytic activity of CD8^+ CAR-T cells in a bioluminescence-based cytotoxicity assay using K562 that the inventors had transduced with either CD19 (for testing CD19 CAR-T cells) or ROR1 (for testing ROR1 CAR-T cells) as target cells. Dasatinib was added to the assay medium at the beginning of the assay.
The inventors prepared CD8^+ CAR-T cell lines from n=3 healthy donors. In each of the T-cell lines, the inventors enriched CAR-expressing T cells to >90% purity using the EGFRt-transduction marker. The inventors analyzed cytolytic activity of CD8^+ CAR-T cells in a bioluminescence-based cytotoxicity assay using K562 target cells that the inventors had transduced with CD19.
The CAR-T cell cytolytic activity was analyzed at 1-hour intervals for 10 hours.
The inventors analyzed cytolytic activity of CD8+ CAR-T cells in a bioluminescence-based cytotoxicity assay.
The inventors prepared CD8^+ CD19 CAR-T cell lines with a 4-1BB costimulatory domain from one healthy donor. In the T-cell line, the inventors enriched CAR expressing T cells to >90% purity using the EGFRt-transduction marker. The inventors analyzed cytolytic activity of CD8^+ CAR-T cells in a 4-hour bioluminescence-based cytotoxicity assay using K562 that the inventors had transduced with CD19 as target cells to assess the influence of a panel of Src-kinase inhibitors on the cytolytic function of CAR-T cells. Src-kinase inhibitors were added to the assay medium at the beginning of the assay over a 4-log concentration range.

[3] = system: ZAP70 at tyrosine 319; assay: Quantitative Western blot of phosphorylation in CD8+ CD19 CAR/4-1BB T cells; format: cell-based, human; conditions: 100 nM dasatinib; co-culture with RCH-ACV
[4] = system: CD8+ T cells expressing a SLAMF7 CAR with CD28 costimulatory domain; assay: Bioluminescence-based cytotoxicity assay, K562/SLAMF7 target cells; format: cell-based, human
[5] = system: CD8+ T cells expressing a ROR1 CAR with 4-1BB costimulatory domain; assay: Cytokine production and secretion (IFN-γ, IL-2 ELISA), co-culture with K562/ROR1; format: cell-based, human; conditions: dasatinib ≥50 nM; 20 h
Experimental: Cytokine secretion: 5×10^4 T-cells were plated in duplicate or triplicate wells with target cells at an E:T ratio of 4:1 (K562/ROR1, K562/CD19, RCH-ACV), and IFN-γ and IL-2 were measured by ELISA, or cytokine panels were measured by multiplex cytokine immunoassay (Luminex) in supernatant removed after 20-h incubation. Specific cytokine production was calculated by subtracting the amount of cytokines released by unstimulated CAR-T cells from the amount of cytokines released after antigen-specific stimulation. The remaining cytokine secretion in % as shown in the diagrams is normalized to CAR-T cells in the absence of dasatinib-treatment (100%).
CAR-T cells were co-cultured with K562 that the inventors had transduced with either CD19 (for testing CD19 CAR-T cells) or ROR1 (for testing ROR1 CAR-T cells). Dasatinib was added to the assay medium at the beginning of the co-culture assay. ELISA was performed to detect IFN-γ and IL-2 in supernatant removed from the co-culture.

[6] = system: CD19 CAR/4-1BB-T cells; Raji tumor cells; assay: Flow cytometry of tumor cells and human CAR-T cells in bone marrow and spleen, intermittent dasatinib; format: in vivo, NSG mice; conditions: day 15
Experimental: The Institutional Animal Care and Use Committee of UKW approved all mouse experiments. NOD.Cg-Prkdc^scidIl2rg^tm1wjl/SzJ (NSG) mice (female, 6-8 week old) were purchased from Charles River (Sulzfeld, Germany). Mice were inoculated with 1×10^6 Raji/ffluc_GFP tumor cells via tail vein injection (i.v.). Mice were treated with 5×10^6 CAR-modified or control untransduced T-cells (CD4:CD8 ratio=1:1) via tail vein injection (i.v.). […] Tumor burden and distribution was analyzed by serial bioluminescence imaging on an IVIS Lumina imager (Perkin Elmer, Baesweiler, Germany): mice received i.p. injections of 0.3 mg/g luciferin and images were acquired 10 minutes after luciferin injection in small binning mode at an acquisition time of 1 s to 1 min to obtain unsaturated images. Data were analyzed using LivingImage Software (Caliper) and the average radiance (or photon flux) analyzed in regions of interest that encompassed the entire body of each individual mouse. Mice were sacrificed at the end of the experiment and human T cells in bone marrow, peripheral blood and spleen were analyzed by flow cytometry. The presence of (human) cytokines in serum was measured using multiplex cytokine analysis.
In brief, cohorts of 1-12 mice were inoculated with 1×10^6 firefly-luciferase_GFP-transduced Raji tumor cells on day 0. […] Serial bioluminescence imaging was performed to determine tumor burden on day 7, 9 and 15.
On day 15, mice were sacrificed and peripheral blood (PB), bone marrow (BM) and spleen (SP) analyzed for the presence of human CAR-T cells by flow cytometry.

## Cc1nc(Nc2ncc(C(=O)Nc3c(C)cccc3Cl)s2)cc(N2CCN(CCO)CC2)n1 [dasatinib]
[1]; dasatinib 50 nM, t=5 h, 52% by non-dasatinib treated
  specific lysis of target cells: less than 23%
[1]; dasatinib 50 nM, t=10 h, 91% by non-dasatinib treated
  residual specific lysis of target cells: 47%
[1]; dasatinib 100 nM, any given time point, 91% by non-dasatinib treated at t=10 h
  specific lysis of target cells: less than 10%
[2]; 0.1 μM dasatinib at the beginning of the assay, t=10 h
  specific lysis: < 1%
[2]; dasatinib 25 nM, t=6 h, 53% by non-dasatinib treated
  specific lysis of target cells: 26%
[2]; dasatinib 25 nM, t=12 h, 93% by non-dasatinib treated
  specific lysis of target cells: 73%
[2]; dasatinib 100 nM for 2 hours, then removed, at 10 hours
  specific lysis of target cells: > 95%
[2]; dasatinib 100 nM for 2 hours, then removed, at +4 hours
  specific lysis of target cells: 77%
[2]; dasatinib ≤12.5 nM, t=12 h, 93% by non-dasatinib treated CAR-T cells
  specific lysis of target cells: > 88%
[2]; dasatinib ≥50 nM, t=12 h, 93% by non-dasatinib treated
  specific lysis of target cells: less than 12%
[2]; dasatinib ≥50 nM, up to t=6 h
  specific lysis of target cells: less than 7%
[2]; inhibitor 10 nM, 4-hour assay, 82% by untreated CAR-T cells
  specific lysis of target cells: 16.1%
[3]
  phosphorylation compared to CAR-T cells co-cultured in the absence of dasatinib: 11.61%
[4]; dasatinib 20, 40 and 60 nM, t=6 h, 67% by non-dasatinib treated
  specific lysis of target cells: less than 21%
[4]; dasatinib 20, 40 and 60 nM, t=12 h, 85% by non-dasatinib treated
  residual specific lysis of target cells: less than 35%
[4]; dasatinib ≥80 nM, any given time point, 85% by non-dasatinib treated at t=12 h
  specific lysis of target cells: less than 3%
[5]
  residual IFN-γ production compared to non-dasatinib treated CAR-T cells: less than 3%
  residual IL-2 production compared to non-dasatinib treated CAR-T cells: less than 8.5%
[6]; intermittent dasatinib, 1.9% without
  percentage of human CAR-T cells, bone marrow: 7.3%
[6]; intermittent dasatinib, 3.2% without
  percentage of human CAR-T cells, spleen: 6.9%
[6]; one exemplary mouse, CAR-T cells and intermittent dasatinib, 58.8% CAR-T cells only
  remaining tumor burden, of all living cells in the bone marrow: 0.22%
